US20030144346A1, “Methods and compositions for regulation of 5-alpha reductase activity” (priority 1997, published 2003)
Several values for one entry are separate records, joined by “and”; a condition that tells them apart may be missing. Equal entries are not always repeated.

What was measured:
[1] = target: T1, type 1 human 5α-reductase (HRED1) (Homo sapiens, UniProt P18405); assay: Cell free assay of 5α-reductase, microsomes of rat 1A cells expressing type 1 isoenzyme (HRED1); format: biochemical; design: expressed in transfected cells; host or cells: rat 1A cells infected with pMV7 retrovirus; microsomes;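 note: microsomes from rat 1A cells expressing human type 1 5α-reductase, conversion of radiolabeled testosterone to dihydrotestosterone quantified by thin layer chromatography with radioanalytic scanning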
T1 sequence (P18405 1-259): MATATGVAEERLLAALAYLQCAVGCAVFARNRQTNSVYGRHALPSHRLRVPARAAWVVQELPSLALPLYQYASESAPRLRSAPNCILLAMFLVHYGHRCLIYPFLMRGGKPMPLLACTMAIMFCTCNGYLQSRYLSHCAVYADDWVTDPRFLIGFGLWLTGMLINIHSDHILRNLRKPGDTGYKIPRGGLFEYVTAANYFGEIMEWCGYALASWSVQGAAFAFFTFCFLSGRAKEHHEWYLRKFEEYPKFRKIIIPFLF

[2] = target: T1, type 1 human 5α-reductase (HRED1); assay: Whole cell assay of 5α-reductase, type 1 isoenzyme; format: cell-based; design: expressed in transfected cells; host or cells: rat 1A cells infected with pMV7 retrovirus; details: whole cell assay; for IC50: read-out: HCRED1 IC50;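 for all read-outs here: intact rat 1A cells engineered to express the human type 1 5α-reductase isozyme serve as the enzyme source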
[3] = test system: human prostate and breast tumors; assay: Human prostate and breast tumors in animal models; format: in vivo, nude mice
Experimental: A compound of this invention can be used to treat breast or prostate cancer. […] By way of example, human prostate cancer PC-3 cells are grown in culture medium. About one million cells are injected into male nude mice and the growth of tumors followed. Within two weeks, the tumor grows to about 100 mm^3. Three tumor bearing mice are injected with a test compound each day.

[4] = target: T2, type 2 human 5α-reductase (HRED2) (Homo sapiens, UniProt P31213); assay: Whole cell assay of 5α-reductase, type 2 isoenzyme; format: cell-based; design: expressed in transfected cells; host or cells: rat 1A cells infected with pMV7 retrovirus; details: for inhibition at 100 µM: Table 7; for IC50: Table 7, read-out: HCRED2 IC50;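 for all read-outs here: intact rat 1A cells genetically modified to carry human type 2 5α-reductase served as the enzyme source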
T2 sequence (P31213 1-254): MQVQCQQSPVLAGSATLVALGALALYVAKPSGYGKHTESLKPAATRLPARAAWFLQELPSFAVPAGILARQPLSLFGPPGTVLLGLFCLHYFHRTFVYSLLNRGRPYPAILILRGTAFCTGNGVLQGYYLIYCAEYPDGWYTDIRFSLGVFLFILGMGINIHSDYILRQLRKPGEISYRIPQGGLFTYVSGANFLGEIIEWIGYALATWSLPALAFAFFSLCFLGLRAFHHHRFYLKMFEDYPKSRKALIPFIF

[5] = Body and organ weight loss; format: in vivo; details: compared with ECG
Experimental: By way of example, male Sprague-Dawley rats (body weight 180 g±10 g) are used. Compounds are intraperitoneally injected into rats in one group each day for 7 days. Rats in the control group receive 0.1 ml 30% ethanol. Body and organ weights are determined.

[6] = test system: 5α-reductases isozyme 2 and isozyme 1; details: Russell and Wilson, 1994; cited from earlier work
[7] = target: T2, type 2 human 5α-reductase (HRED2); assay: Cell free assay of 5α-reductase, microsomes of rat 1A cells expressing type 2 isoenzyme (HRED2); format: biochemical; design: expressed in transfected cells; host or cells: rat 1A cells infected with pMV7 retrovirus; microsomes; details: for IC50: read-out: HRED2 IC50;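 for all read-outs here: labeled testosterone and its product dihydrotestosterone measured in microsomal reaction extracts via thin layer chromatography plus radioanalytic scanning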
[8] = 100 uM, cell free assay, Table 2, read-out: HRED1 % Inhibition @ 100 uM
[9] = cell free assay, Table 2 catechols, read-out: HRED1 IC50
[10] = 100 uM, cell free assay, Table 2, read-out: HRED2 % Inhibition @ 100 uM
[11] = cell free assay, Table 2 catechols

## O=C(O[C@@H]1Cc2c(O)cc(O)cc2O[C@@H]1c1cc(O)c(O)c(O)c1)c1cc(O)c(O)c(O)c1 [Epigallocatechin Gallate]
[1]; cell-free assay
  inhibitory activity against type 1 isoenzyme, in words: high
[2]
  inhibitory activity in the whole cell assay, type 1 isoenzyme, in words: low
[3]
  effect on size of human prostate and breast tumors: surprisingly effective in suppressing and even reducing the size
[4]; Table 7, listed as EGCG
  HRED2 % Inhibition @ 100 μM: 5% and 0%
[5]
  reduction of body weight: significantly more effective

## CC(C)(C)NC(=O)[C@H]1CC[C@H]2[C@@H]3CC[C@H]4NC(=O)C=C[C@]4(C)[C@H]3CC[C@]12C [Finasteride]
[6]
  affinity for isozyme 2 relative to isozyme 1: 30 fold

## CCCOC(=O)c1cc(O)c(O)c(O)c1 [Propylgallate]
[1]; [8]
  inhibition at 100 µM: 0%
[1]; [9]
  IC50: > 100 µM
[7]; [10]
  inhibition at 100 µM: 0%
[7]; [11]
  IC50: > 100 µM
[2]; 100 μM, Table 7
  inhibition at 100 µM: 5%
[2]; Table 7
  IC50: > 100 µM
[4]
  inhibition at 100 µM: 0%
  IC50: > 100 µM

## O=C1c2ccccc2C(=O)c2c(O)c(O)cc(O)c21 [Purpurin]
[1]; cell free assay, Table 4 quinones, read-out: HRED1 IC50
  IC50: 2 µM
[7]; cell free assay, Table 4 quinones
  IC50: > 100 µM
[2]; 100 μM, Table 7
  inhibition at 100 µM: 47%
[2]; Table 7
  IC50: > 100 µM
[4]
  inhibition at 100 µM: 7%
  IC50: > 100 µM

## Oc1cccc(O)c1O [Pyrogallol]
[1]; [8]
  inhibition at 100 µM: 60%
[1]; [9]
  IC50: 70 µM
[7]; [10]
  inhibition at 100 µM: 28%
[7]; [11]
  IC50: > 100 µM
[2]; 100 μM, Table 7
  HRED1 % Inhibition @ 100 μM: 5%
  inhibition at 100 µM: 7%
[2]; Table 7
  IC50: > 100 µM
[4]; Table 7, 100 µM
  HRED2 % Inhibition @ 100 μM: 6%
[4]
  IC50: > 100 µM

## O=c1c(O)c(-c2ccc(O)c(O)c2)oc2cc(O)cc(O)c12 [Quercitin]
[1]; 100 uM, cell free assay, Table 1, read-out: HRED1 % Inhibition @ 100 uM
  inhibition at 100 µM: 96%
[1]; cell free assay, Table 1 flavanoids, read-out: HRED1 IC50
  IC50: 23 µM
[1]; cell-free assay, read-out: IC50, type 1 isoenzyme
  IC50: < 100 µM
[7]; 100 uM, cell free assay, Table 1, read-out: HRED2 % Inhibition @ 100 uM
  inhibition at 100 µM: 14%
[7]; cell free assay, Table 1 flavanoids
  IC50: > 100 µM
[2]; 100 μM, Table 7
  inhibition at 100 µM: 15%
[2]; Table 7
  IC50: > 100 µM
[4]
  inhibition at 100 µM: 29%
  IC50: > 100 µM

## CCCCCCCCCCCCCCCCCC(=O)O [Stearic Acid, Stearic Acid C18:0]
[1]; 100 μM, cell free assay, Table 6, read-out: HRED1 % Inhibition @ 100 μM
  inhibition at 100 µM: 71%
[1]; cell free assay, Table 6 fatty acids, read-out: HRED1 IC50
  IC50: 27 µM
[7]; 100 μM, cell free assay, Table 6, read-out: HRED2 % Inhibition @ 100 μM
  inhibition at 100 µM: 35%
[7]; cell free assay, Table 6 fatty acids
  IC50: > 100 µM
[2]; 100 μM, Table 7
  inhibition at 100 µM: 10%
[2]; Table 7
  IC50: > 100 µM
[4]
  inhibition at 100 µM: 23%
  IC50: > 100 µM

## COc1cc(CCC(=O)CC(=O)CCc2ccc(O)c(OC)c2)ccc1O [Tetrahydrocurcumin]
[1]; cell free assay, Table 3 curcumin and related compounds, read-out: HRED1 IC50
  IC50: 80 µM
[1]; read-out: HRED1 % Inhibition @ 100 uM
  inhibition at 100 µM: 56%
[7]; read-out: HRED2 % Inhibition @ 100 uM
  inhibition at 100 µM: 73%
[7]
  IC50: 29 µM
[2]; 100 μM, Table 7
  inhibition at 100 µM: 81%
[2]; Table 7
  IC50: 36 µM
[4]
  inhibition at 100 µM: 92%
  IC50: 7 µM
